For one data set, the system named is BoCell™ model cell line. The format is cell-based. The settings on record: for increase in BoCell™ Assay sensitivity: Figure 1, 24 hr pre-treatment with drug, then BoNT/A containing drug for an additional 24 hr, YFP/CFP emission ratio.
The test system of data set [1] is BoCell™ modified neuroblastoma cells. The format is cell-based.
The test system of a further data set is neuroblastoma cells. The settings on record: pretreatment of cells; 1990 JBC paper; cited from earlier work.

Read-outs that look alike come from different tables or passages of the source.

In the case of `CCCC(=O)Nc1ncnc2c1ncn2[C@@H]1O[C@@H]2COP(=O)(O)O[C@H]2[C@H]1OC(=O)CCC` [dibutyryl-cAMP, dibutyryl-cyclic AMP], the figures for the “increase in BoCell™ Assay sensitivity” value in the data set with BoCell™ model cell line and in the data set on BoCell™ model cell line (listed as db-cAMP) were “increased sensitivity was not seen” and “not”, respectively.
Consider `CC1CNCCN1S(=O)(=O)c1cccc2cnccc12.Cl.Cl` (centres unmarked) [H7, 1-(5-isoquinolinylsulfonyl)-2-methylpiperazine dichloride], for which, in data set [1], the “H7 concentration giving maximal effects” value was “ImM”; the “neurite length and neurite number per cells” value was “rapid increases in both neurite length and neurite number per cells”; the “reversibility of the phenotypic change” value is “could be "rescued" by removal of the H7”; the “time and dose dependence of the H7 effect” value was “both time and dose-dependent”. In the data set with BoCells, the cell viability entry is “does not affect cell viability”. Also, the “increase in BoCell™ Assay sensitivity” value in the data set on BoCell™ model cell line is reported as “cause an increase in BoCell™ Assay sensitivity”. Moreover, the “H7 effect on assay sensitivity, dose dependence” value in the data set with BoCell™ model cell line (Figure 2A, 24 hr pre-treatment, then BoNT/A with H7 for 24 hr) is reported as “dose dependent”. For the same molecule, in the data set with BoCell™ model cell line (Figure 5, 0.75 mM H7 from three independent manufacturers, 24 hrs pre-incubation, then BoNT/A 24 hrs), the “increase in sensitivity with multiple H7 lots” value is recorded as “all cause an increase in sensitivity”. The “sensitivity of cells to BoNT/A treatment as measured by SNAP-25 reporter cleavage” value with BoCell™ model cell line (pretreatment of cells with H7) is “significantly increased”.
Regarding `CC(C)Cn1c(=O)n(C)c(=O)c2[nH]cnc21` [IBMX], the “increase in BoCell™ Assay sensitivity” value with BoCell™ model cell line was “not and increased sensitivity was not seen”.
Regarding `N=C(N)NCCNS(=O)(=O)c1cccc2cnccc12` [HA1004], the “morphologic changes in neuroblastoma cells” value with neuroblastoma cells is on record as “failed to induce morphologic changes”.
With Calphostin C, the “increase in BoCell™ Assay sensitivity” value in the data set on BoCell™ model cell line was “increased sensitivity was not seen”; in the data set with BoCell™ model cell line (listed as calphostin), “not”.
Consider `Nc1ncnc2c1nc(Br)n2[C@@H]1O[C@@H]2COP(=O)(O)O[C@H]2[C@H]1O` [8-Bromoadenosine-cAMP], for which the “increase in BoCell™ Assay sensitivity” value in the data set on BoCell™ model cell line is on record as “increased sensitivity was not seen”; with BoCell™ model cell line (listed as 8-Br-cAMP), “not”.

The record behind these values is patent EP2800973B1 (priority 2012, dated 2013).
